Laboratory results published in patent US6492418B2, “Compositions containing a benzamide disulfide derivative for treating allergic diseases” (Alcon Universal Ltd., priority 2000, dated 2002).
pIC50: −log10 of the molar value. Where “and” joins values, the source holds several entries; their conditions need not be identical. Equal entries are not always repeated. Where two headings read alike, the source gives them in different places.

System: human conjunctival tissue mast cells
Assay: Inhibition of anti-IgE induced histamine release from human conjunctival tissue mast cells (HCTMC)
Type: cell-based
Conditions: for IC50: bracketed value, apparently the mean of the individual determinations in the same cell, read-out: IC50(nM), value in square brackets; for pIC50: goat-anti-human IgE 10 μg/mL challenge 15 min after 15 min drug treatment, individual determinations (values outside brackets), read-out: IC50
Description: Methods detailing preparation of mono-dispersed HCTMC and mediator release studies with these cells have been described (U.S. Pat. No. 5,360,720 and Miller et al, Ocular Immunology and Inflammation, 4(1):39-49 (1996)). Briefly, human conjunctival tissue mast cells were isolated from post-mortem tissue donors obtained within 8 hours of death by various eye banks and transported in Dexsol® corneal preservation medium, or equivalent. Tissues were enzymatically digested by repeated exposure (30 min. at 37° C.) to collagenase and hyaluronidase (2× with 200 U each/gram tissue, then 2-4 × with 2000 U each/gram tissue) in Tyrode's buffer containing 0.1% gelatin. (Tyrode's buffer (in mM): 137 NaCl, 2.7 KCl, 0.35 NaH2PO4, 1.8 CaCl2, 0.98 MgCl2, 11.9 NaHCO3, and 5.5 glucose). Each digestion mixture was filtered over Nitex® cloth (100 μm mesh, Tetko, Briarcliff Manor, N.Y.) and washed with an equal volume of buffer. Filtrates were centrifuged at 825×g (7 min). Pellets were resuspended in buffer then combined for enrichment over a […] Percoll® cushion. The enriched pellet was washed, resuspended in supplemented RPMI 1640 medium and incubated at 37° C. to equilibrate.
Cells were harvested from the culture plate and counted for viability (trypan blue exclusion) and mast cell number (toluidine blue O). Mast cells (5000/tube; 1 mL final volume) were challenged (37° C.) for 15 min with goat-anti-human IgE (10 μg/mL) following treatment (15 minutes; 37° C.) with test drug or Tyrode's buffer. Total and non-specific release controls were exposed to 0.1% Triton X-100 and goat IgG (10 μg/mL), respectively. The reaction was terminated by centrifugation (500×g, 4° C., 10 min). Supernatants were stored at −20° C. until analyzed for histamine content by RIA (Beckman Coulter, Chicago, Ill.).
All test drugs were made to solution immediately prior to use. Each was dissolved in DMSO at 10 mM or greater concentration and then diluted in Tyrode's buffer containing 0.1% gelatin over the concentration for evaluation.
Inhibition of histamine release was determined by direct comparison of with anti-IgE challenged mast cells using Dunnett's t-test (Dunnett, “A multiple comparison procedure for comparing treatments with a control”, J. Amer. Stat. Assoc. (1955), 50:1096-1121).

Compound	IC50 (Homo sapiens, Mast cell) [nM]	pIC50	pIC50 (Homo sapiens, Mast cell, 0.25 h)
O=C(NCCCN1CCOCC1)c1ccccc1SSc1ccccc1C(=O)NCCCN1CCOCC1 [Compound 2]	105	7.11 and 6.70 and 7.41	–
C=CCNC(=O)c1ccccc1SSc1ccccc1C(=O)NCC=C [Compound 3]	148	–	–
CNC(=O)c1ccccc1SSc1ccccc1C(=O)NC [Compound 4]	282	–	–
CC(O)CNC(=O)c1ccccc1SSc1ccccc1C(=O)NCC(C)O (stereo not drawn) [Compound 5]	122	6.97 and 6.66 and 6.64 and 7.08 and 7.15	–
CNC(=O)c1cccc(SSc2cccc(C(=O)NC)c2)c1 [Compound 6]	312	6.65	6.40
